The values that follow come from patent publication US11472846B2, “Compositions and methods for treating diseases by inhibiting exosome release” (priority 2016, dated 2022).

“Also recorded” adds a separate entry of the source. Like-named read-outs stand apart in the source and are kept apart here.

Common to all, as to format: cell-based, human
For experiment [1], the system named is non-tumorigenic MCF-10A cells. As to the kind of experiment: MTT proliferation assay, MCF-10A. To be noted: 24 hours, up to 1120 nM/mL. The procedure:
(§1) 1-3. Viability and proliferation. Human breast cancer cell lines were seeded into 96-well plates (5000 cells/well) and treated for 24 hours with various concentrations of SMR peptides including PEG-SMRwt-Clu, PEG-SMRwt and PEG-SMRmut to determine IC50 (inhibition concentration). Cell proliferation was determined using the MTT assay (Molecular Devices, Sunnyvale, Calif.). Control experiments were performed with MTT treated cells alone and untreated cells, and on this basis, the incubation times of 24 hr and 48 hr were used for an MTT assay of peptide-treated cells (Stockerta JC. et al., 2012 and Riss TL. et al., 2015).
7-4. Cell proliferation and cytotoxicity assay. Human breast cancer cell lines MCF-7, MDAMB-231, and leukemia K562 cells, and non-tumorigenic MCF-10A cells are seeded into 96-well plates (5000 cells/well) and treated for 24 hours with 0-1120 nM SMRwt-CPP or SMRmut-CPP (FIG. 10). Cell proliferation was determined using the MTT [3-(4,5-dimethylthiazol-2-yl)-2,5-diphenyltetrazolium bromide] dye assay by SpectraMax M5 Fluorescence Plate Reader (Molecular Devices. Sunnyvale, Calif.). Cell viability was estimated by the conversion of yellow MTT by mitochondrial dehydrogenases of living cells to purple formazon (MTT assay). […] Statistical significance of results was determined from three independent experiments including triplet or quadruplet sets in each experiment.
In general terms: Tetrazolium assays rely on reduction of a dye to a coloured formazan, in cell work by metabolically active cells.

In experiment [2] the test system is MDA-MB-231 breast cancer cells. Briefly: MTT proliferation assay, MDA-MB-231. To be noted: MDA-MB-231 cells, 24 hours. As to the method: as §1
(§2) 7-4. Cell proliferation and cytotoxicity assay. Human breast cancer cell lines MCF-7, MDAMB-231, and leukemia K562 cells, and non-tumorigenic MCF-10A cells are seeded into 96-well plates (5000 cells/well) and treated for 24 hours with 0-1120 nM SMRwt-CPP or SMRmut-CPP (FIG. 10). Cell proliferation was determined using the MTT [3-(4,5-dimethylthiazol-2-yl)-2,5-diphenyltetrazolium bromide] dye assay by SpectraMax M5 Fluorescence Plate Reader (Molecular Devices. Sunnyvale, Calif.). Cell viability was estimated by the conversion of yellow MTT by mitochondrial dehydrogenases of living cells to purple formazon (MTT assay). Control experiments were performed with cells treated or untreated with MTT, and on this basis, an incubation time of 24 hours was used for MTT assays of peptide-treated cells (Huang, M. B., et al., Oncotarget, 2017. 8(7): pp. 11302-11315.). Statistical significance of results was determined from three independent experiments including triplet or quadruplet sets in each experiment.

Experiment [3] has as its system MCF-7 breast cancer cells. Briefly: MTT proliferation assay, MCF-7. To be noted: MCF-7 cells, 24 hours. The procedure:
as §1, §2

In experiment [4] the test system is MCF-7 breast cancer cells. As to the kind of experiment: Exosome nanoparticle tracking analysis (NanoSight NTA), MCF-7. To be noted: MCF-7 cells treated 48 hr; untreated control 5.16×10^9 particles/ml. As to the method: 1-6. Exosome isolation and purification. Exosomes were isolated from breast cancer cells by differential centrifugation as previously described (Ali SA. et al., 2010). Untreated tumor cells were used as a control. Briefly, the above treated and untreated cell culture supernatants were centrifuged at 400×g for 10 minutes. The supernatants were transferred to a clear tube and centrifuged at 10,000×g for 30 minutes. The supernatants from the second spin were ultracentrifuged at 200,000×g for 2 hours to pellet exosomes. Finally, the exosome pellets were re-suspended with PBS and stored at 4° C. until used for analysis.
1-8. Exosome nanoparticle tracking analysis (NTA). Analysis of absolute size distribution of exosomes was performed using NanoSight LM10 with NTA2.3 (NanoSight Ltd., Minton Park, UK). Particles were automatically tracked and sized based on Brownian motion and the diffusion coefficient. After isolation, the untreated and treated breast cancer exosomes were re-suspended in 0.5 mL of PBS. Control medium and filtered PBS were used as controls in this technique. The NTA measurement conditions were: temperature=21.0+/−0.5° C.; viscosity=0.99+/−0.01 cP; frames per second=25; measurement time=30 s. The detection threshold was similar in all samples. Two recordings were performed for each sample.
7-11. Exosome nanoparticle tracking analysis (NTA). […]

The subject of experiment [5] is MDA-MB-231 breast cancer cells. As to the kind of experiment: Propidium iodide cell cycle analysis (Cellometer), MDA-MB-231. To be noted: MDA-MB-231 cells, 48 hours, 0.28 μM/mL peptide. As to the method:
1-4. Cell cycle analysis. MCF-7 and MDA-MB-231 breast cancer cells were cultured into 6-well plates at 4×10^5 cells per well and treated with either paclitaxel and cisplatin or combined with PEG-SMRwt-CLU peptide for 24 and 48 hours. Cell cycle analysis was performed using a propidium iodide cell cycle assay and measured using a Cellometer (Nexcelom, MA). […] Breast cancer cells were seeded into 96-well plates at 5×10^3 cells/ml, and treated with either 1.6 μM//mL of paclitaxel, or 3 mg/mL cisplatin, 1.12 μM/mL PEG-SMRwt-CLU peptide, SMR peptide combined with paclitaxel or with cisplatin (MCF-7 cells). Alternatively 1.6 μM/mL paclitaxel or 2 mg/mL cisplatin or 0.28 μM/mL of PEG-SMR-CLU peptide, or the peptide combined with each of these drugs was used for MDA-MB-231 cells. The concentrations for cisplatin and paclitaxel were experimentally determined IC50 dosages for the different cell types (data not shown). At the end of the 24 hr or 48 hr incubations, the cells were assessed by the Cellometry imaging cytometry assay.
All above steps were done on MCF-7 and MDA-MB-231 cells separately. […]

Experiment [6] deals with MCF-7 breast cancer cells. As to the kind of experiment: Annexin V-FITC/PI apoptosis assay, MCF-7. To be noted: MCF-7 cells, 48 hours. As to the method:
1-5. Assessment of apoptosis. Breast cancer cells were seeded into 6-well plates at 4×10^5 cells per well and treated with either paclitaxel or cisplatin or various concentrations of SMR peptides for 24 hours or different time point. SMR as described above. Apoptosis was determined the using Annexin V-FITC detection kit (Nexcelom, MA) and visualized by Cellometer imaging cytometry.

Where [7] appears, read: MTT, read-out: 50% inhibition of cell growth.
Setting [8] is: read-out: SMR at IC50 concentration.

On to VGFPVAAVGFPVGRKKRRQRRRPPQ [SMRwt-CPP], for which, in experiment [1], the “effect on proliferation (in words)” value is “not affected; also recorded: no effect”.

As for “NXNVGFPVAAVGFPVHPLSKHPYWSQP (SEQ ID NO: 37) [PEG-SMRwt-Clu]”, the IC50 in experiment [2] (setting [7]) is 280 nM; in experiment [2] (setting [8]), 280 nM; in experiment [3] (setting [7]), 1120 nM; in experiment [3] (setting [8]), 1120 nM. Besides, in experiment [4], the “number of exosome particles (NTA)” value is on record as 3.28×10^8 particles/ml. Further, in experiment [5], the cell cycle effect entry is “induced cell cycle arrest”. Also, the “effect on paclitaxel/cisplatin-induced apoptosis” value in experiment [6] is reported as “increased the level of drug-induced apoptosis”.
